In patent US20110237495A1, “FUNCTIONAL METABOLOMICS COUPLED MICROFLUIDIC CHEMOTAXIS DEVICE AND IDENTIFICATION OF NOVEL CELL MEDIATORS” (The Brigham and Women's Hospital, Inc. Corporate Sponsored …, priority 2008, published 2011):
Entries after “also recorded” stand apart in the source; their conditions may differ.

How the values were obtained:
[1] = cited from earlier work
[2] = tested on: peripheral blood monocytes; assay: RANKL-induced differentiation of peripheral blood monocytes into osteoclasts; format: cell-based; conditions: RANKL treatment
Excerpt: This effect is even more pronounced than for PRP (platelet rich plasma) a recognized inhibitor of osteoclast differentiation. Preparations of 5, 10, 20% PRP are compared with RvE1 were quantified in experiments in which peripheral blood monocytes were induced to differentiate into osteoclasts with RANKL treatment.
In order to investigate the etiology of resolvins in bone regeneration, the inventors investigated the effect of RvE1 on osteoclast differentiation. In these experiments, peripheral blood monocytes were induced to differentiate into osteoclasts with RANKL treatment.

[3] = tested on: P. gingivalis-induced periodontitis; assay: Rabbit periodontitis induced with Porphyromonas gingivalis, RvE1 topical monotherapy; format: in vivo
Excerpt: The inventors established a small animal model for the evaluation of disease progression and regeneration after treatment using the rabbit as a model induced with periodontitis using Porphyromonas gingivalis. Briefly, ligatures were tied around the second mandibular premolar of rabbits for 6wk to create an environment where the periodontopatogen P. gingivalis could be retained. […] The right panel is the same preparation but with the jaws defleshed to show the bone underneath. […] FIG. 13 sows that the bone loss extends from the crest of the bone to the depth of the infrabony pocket.
The figures illustrate the new deposition of the cementum (NC) the new periodontal ligament (PL), connective tissue (CT) and bone (B).

[4] = tested on: leukocyte infiltration in lung tissues; assay: Hind-limb ischemia-reperfusion-induced second-organ (lung) injury, lung MPO by ELISA; format: in vivo, mice; conditions: for reduction of lung MPO concentration (FIG. 7D), mean±SEM: 1 μg i.v. 5 min before reperfusion, lungs collected after 2 h reperfusion; for effect on leukocyte (PMN) infiltration / MPO in lung tissue, in words: 1 μg/mouse i.v.
Protocol: To identify the effects of the resolvins and protectins on inflammation resolution, ischemia-reperfusion induced second-organ injury experiments were designed and are illustrated in FIGS. 7A-D. Mice were anesthetized by intraperitoneal injection of pentobarbital (80 mg kg^−1, Nembutal sodium solution NDC 0074-3778-04). Hind-limb ischemia was initiated using tourniquets consisting of a rubber band placed on each hind limb as in ref.^35. Mice were subjected to hind limb ischemia for 1 h, after which the tourniquets were removed to initiate reflow-reperfusion. Resolvins, related compounds and analogs were each administered at 1 μg/mouse (i.e., DHA, RvD1, RvD1 methyl ester, 17-(R/S)-methyl-RvD1 methyl ester, RvE1, or 19-p-fluorophenoxy-RvE1 methyl ester) in vehicle (5 μl ethanol in 120 μl sterile saline) or vehicle alone. They were administered intravenously to the tail vein ˜5 min before the start of the reperfusion period. At the end of this reperfusion period (2 h), the mice were euthanized with an overdose of anesthetic and the lungs were quickly harvested, frozen in liquid nitrogen, and stored at −80° C. The right lungs were homogenized from individual mice and centrifuged, and the tissue levels of myeloperoxidase (MPO) (a leukocyte marker enzyme) in the resulting supernatants, for each experimental protocol, were determined using a mouse MPO enzyme-linked immunosorbent assay (Hycult biotechnology, Cell Sciences, Uden, The Netherlands).
Briefly, as illustrated in the time-course shown in FIG. 7A, hind-limb ischemia was induced in mice by creating tourniquets using a rubber band on each hind limb. After 1 h, the tourniquets were removed and reperfusion ensued. Test compounds (1 μg of DHA, RvD1, RvE1) in vehicle were administered intravenously 5 min before the start of the reperfusion period. At the end of the reperfusion period (2 h), lungs were collected and MPO concentrations were determined by ELISA. FIGS. 7B and C are representative images from histological analysis. FIG. 9B is a photomicrograph showing a hematoxylin/eosin-stained lung from ischemia/reperfusion second organ injury (control). […] Mean±SEM (n=3-5, control; n=12).
Ischemia/reperfusion is a well-appreciated pathophysiologic mechanism of organ injury and local tissue damage that can be initiated by excessively activated PMN. This system in the mouse, models the second organ injury observed in humans following tourniquet release of vessels in surgery involving, for example, extremities^41, 42. Remote or second organ injury can also occur when blood vessels are occluded, or during certain surgical procedures that create local ischemia and remote organ injury that has many features of rapid, acute inflammation and tissue damage^35. On release of the tourniquet occlusion, reflow is initiated and activated PMN rapidly infiltrate secondary organs, causing damage^35. Here, the inventors evaluated RvD1 in a remote organ injury system, i.e., hind-limb ischemia/reperfusion, to assess whether RvD1's ability to inhibit PMN migration, in vitro, in microchambers (FIGS. 8A-C, 9-11) can be predictive of their effect to reduce PMN mediated tissue and organ damage in vivo. […] The extent of lung tissue injury is associated with PMN activation and organ infiltration^35.

[5] = Metabolic inactivation of RvE1 by mouse lung tissue; format: in vitro ADME
[6] = human plasma; cited from earlier work
[7] = tested on: human PMN; assay: Microfluidic chemotaxis device: PMN chemotaxis in IL-8 gradient; format: cell-based; conditions: 10 nM (DHA equimolar), PMN captured on P-selectin from a drop of whole blood, n=12
Excerpt: A new microvolume chemotaxis device was designed using polyethylene glycol (PEG) that allows testing the chemotactic function of neutrophils and their responses to these novel lipid mediators immediately after being separated from whole blood within the device. One exemplary embodiment of the device is illustrated in FIGS. 8A-C. In this embodiment, the microvolume chemotaxis device with microstructured valves was fabricated using “lab-on-chip” microfabrication technologies^36. Briefly, two silicon wafers were coated with a 50-μm-thick layer of SU8 photoresist (MicroChem, Newton, Mass.). After exposure to UV light through a mylar mask in a mask, aligner and development following manufacturer recommendations, 50 μm-tall features were produced on top of the silicon wafers. Subsequently, poly (dimethylsiloxane) (PDMS, Dow Corning, Midland, Mich.) was prepared by mixing two components in 10:1 ratio, as recommended by the manufacturer. […]
After assembly, different sections of the device were chemically modified for specific functionalities. […] The surface of the chemotaxis chamber, where neutrophils were captured and assessed for their chemotactic responses, were modified by physical adsorption of P-selectin (10 ng/mL for 30 minutes, R&D Systems, Minneapolis, Minn.) immediately before use. […]

[8] = healthy human subjects; cited from earlier work

SMILES: CCC(=O)/C=C/C=C\C[C@@H](O)/C=C/C=C/C=C\[C@@H](O)CCCC(=O)O [18-oxo-RvE1]
- activity of the lung metabolite [1]: devoid of activity

SMILES: CC[C@@H](O)/C=C/C=C\C[C@@H](O)/C=C/C=C/C=C\[C@@H](O)CCCC(=O)O [RvE1, 5S,12R,18R-trihydroxy-6Z,8E,10E,14Z,16E-eicosapentaenoic acid]
- osteoclast differentiation ([2]; PRP 5, 10, 20%, P<0.05): significantly inhibited
- resorption area (FIG. 15) ([2]; increasing amounts): significantly decreased
- bone regeneration compared with healthy controls (FIG. 13) ([3]; animals with induced periodontitis treated with RvE1): approximately 80%
- histology of regenerated periodontium (undecalcified sections) ([3]; area of prior periodontal disease): establishment of new cementum, new fiber attachment and new bone and connective tissue
- RvE1-induced bone regeneration, in words ([3]; p<0.001): to pre-disease levels
- reduction of lung MPO concentration (FIG. 7D), mean±SEM [4]: 0±9.3
- effect on leukocyte (PMN) infiltration / MPO in lung tissue, in words [4]: inactive

SMILES: COC(=O)CCC[C@H](O)\C=C/C=C/C=C/[C@H](O)C/C=C\C=C\[C@@H](O)COc1ccc(F)cc1 [19-p-fluorophenoxy-RvE1-Me, 19-p-fluorophenoxy-RvE1 methyl ester]
- metabolic inactivation (conversion to 18-oxo) in mouse lung tissue [5]: prevents this metabolic inactivation
- percent reduction of MPO found in lungs (FIG. 11), mean±SEM ([4]; 1 μg i.v. in vehicle, ischemia-reperfusion): 19.7 ±7.7%
- effect on leukocyte (PMN) infiltration / MPO in lung tissue, in words [4]: significantly reduced leukocyte infiltration

SMILES: CC/C=C\C/C=C\C/C=C\C/C=C\C/C=C\CCCC(=O)O [EPA, [5Z,8Z,11Z,14Z,17Z-icosa-5,8,11,14,17-pentaenoic acid]
- half-life [6]: 67 h

SMILES: CC/C=C\C/C=C\C/C=C\C/C=C\C/C=C\C/C=C\CCC(=O)O [DHA, [4Z,7Z,10Z,13Z,16Z,19Z]-docosa-4,7,10,13,16,19-hexaenoic acid, reference compound]
- effect on PMN migration (chemotaxis) in IL-8 gradient [7]: did not stop PMN migration; also recorded: failed to stop neutrophil chemotaxis
- half-life [6]: 20 h
- reduction of lung MPO concentration (FIG. 7D), mean±SEM [4]: 0±7.7
- effect on leukocyte (PMN) infiltration / MPO in lung tissue, in words [4]: neither DHA nor native RvE1 gave significant reduction

SMILES: CC/C=C\C/C=C\C/C=C\CCCCCCCC(=O)O [α-linolenic acid]
- extent of conversion to DHA [8]: 0.05 to 4.0%
- proportion converted to EPA [8]: 0.20 to 8.0%
